≈ marks a conversion by molar mass, not a printed value.
How the values were obtained:
Format in all cases: cell-based
[1] = system: C. albicans ATCC 10231; experiment: Qualitative antimicrobial activity, adapted Kirby-Bauer (inhibition zone); settings: 10 μL of 10 mg/mL DMSO stock, mean ± SD
Procedure: (§1) For the evaluation of antimicrobial activity, the following reference strains were used: S. aureus ATCC 25923, E. faecalis ATCC 29212, E. coli ATCC 25922, P. aeruginosa ATCC 27853 and C. albicans ATCC 10231. The microbial suspensions were prepared at a density of 1.5 × 10^8 CFU/mL, corresponding to the McFarland 0.5 nephelometric standard. These suspensions were obtained from 18–24 h cultures developed on solid media (Mueller-Hinton for bacteria, Sabouraud for yeast). Antimicrobial activity was assessed using an adapted Kirby-Bauer method according to CLSI (Clinical and Laboratory Standards Institute). In addition to the 10 mg/mL stock solutions prepared in DMSO for each compound, a solvent control was used. Each stock solution (10 μL) was distributed in spot on the medium inoculated with the interest strain. After measuring the diameter of the inhibition zone (IZD) around the spot (mm), the results were expressed as the mean ± standard deviation (SD) for each compound tested in duplicate.

[2] = system: E. coli ATCC 25922; experiment: as above; settings: 10 μL of 10 mg/mL DMSO stock, mean ± SD
Procedure: as §1

[3] = system: E. faecalis ATCC 29212; experiment: as above; settings: 10 μL of 10 mg/mL DMSO stock, mean ± SD
Procedure: as §1

[4] = system: P. aeruginosa ATCC 27853; experiment: as above; settings: 10 μL of 10 mg/mL DMSO stock, mean ± SD
Procedure: as §1

[5] = system: S. aureus ATCC 25923; experiment: as above; settings: 10 μL of 10 mg/mL DMSO stock, mean ± SD
Procedure: as §1

[6] = system: C. albicans ATCC 10231; experiment: Quantitative antimicrobial activity, serial binary microdilution (MIC, IC50); settings: Candida albicans, ATCC10231, 24 h, 37 °C, DMSO control 1.25
Procedure: (§2) For the evaluation of antimicrobial activity, the following reference strains were used: S. aureus ATCC 25923, E. faecalis ATCC 29212, E. coli ATCC 25922, P. aeruginosa ATCC 27853 and C. albicans ATCC 10231.
(§3) Quantitative analysis was performed using the method of serial binary microdilutions in liquid medium (Tryptone Soy Broth for bacteria and Sabouraud Broth for yeasts) in plates with 96 wells. Stock solutions of 10 mg/mL were made in DMSO, and the range of concentrations tested for each compound was 5000–0.16 μg/mL. Simultaneously, the DMSO control was carried out under the same working conditions. Each well was inoculated with 10 μL of microbial suspension, adjusted to a density of 1.5 × 10^8 CFU/mL prepared from 18 to 24 h cultures. After 24 h of incubation at 37 °C, microbial growth and multiplication were evaluated both macroscopically and spectrophotometrically at 620 nm to establish the MIC values. […] Blanks were made for each sample concentration, and the formula was applied: Microbial viability(%)=Asample−Ablank/Astrain control−Asterility control·100

[7] = system: E. coli ATCC 25922; experiment: as above; settings: for MIC: Escherichia coli, ATCC25922, E. coli ATCC 25922, 24 h, 37 °C, DMSO control 1.25
Procedure: as §2, §3

[8] = system: E. faecalis ATCC 29212; experiment: as above; settings: 37 °C, DMSO control 2.5; for MIC: Enterococcus faecalis, ATCC29212, 24 h; for MIC (mg/mL): 24 h
Procedure: as §2, §3

[9] = system: P. aeruginosa ATCC 27853; experiment: as above; settings: Pseudomonas aeruginosa, ATCC27853, 24 h, 37 °C, DMSO control 1.25
Procedure: as §2, §3

[10] = system: S. aureus ATCC 25923; experiment: as above; settings: 24 h; for MIC (mg/mL) / MIC: S. aureus ATCC 25923, 37 °C, DMSO control 2.5
Procedure: as §2, §3

[11] = system: E. faecalis ATCC 29212; experiment: Microbicidal activity (MMC); settings: DMSO control >5
Procedure: (§4) For the evaluation of antimicrobial activity, the following reference strains were used: S. aureus ATCC 25923, E. faecalis ATCC 29212, E. coli ATCC 25922, P. aeruginosa ATCC 27853 and C. albicans ATCC 10231. To determine the MMCs, 5 μL of culture was taken from each well and distributed on solid medium. The plates were incubated for 20–24 h at 37 °C. The lowest concentration at which no microbial growth was observed was considered MMC.

[12] = system: P. aeruginosa ATCC 27853; experiment: Microbicidal activity (MMC); settings: DMSO control 2.5
Procedure: as §4

[13] = system: S. aureus ATCC 25923; experiment: Microbicidal activity (MMC); settings: DMSO control 5
Procedure: as §4

[14] = system: C. albicans ATCC 10231; experiment: Microbial adhesion, crystal violet (MICMA); settings: DMSO control 1.25
Procedure: as §2
(§5) Following quantitative analysis of antimicrobial activity, microbial adhesion was evaluated after methanol fixation and violet crystal staining (0.1%). The absorbance of the adhered biomass colored with violet crystal and resuspended in 33% acetic acid was measured at 490 nm.

[15] = system: E. coli ATCC 25922; experiment: Microbial adhesion, crystal violet (MICMA); settings: DMSO control 5
Procedure: as §2, §5

[16] = system: E. faecalis ATCC 29212; experiment: Microbial adhesion, crystal violet (MICMA); settings: DMSO control 2.5
Procedure: as §2, §5

[17] = system: P. aeruginosa ATCC 27853; experiment: Microbial adhesion, crystal violet (MICMA); settings: DMSO control 1.25
Procedure: as §2, §5

[18] = system: S. aureus ATCC 25923; experiment: Microbial adhesion, crystal violet (MICMA); settings: DMSO control 5
Procedure: as §2, §5

[19] = system: C. albicans ATCC 10231; experiment: Microbicidal activity (MMC); settings: DMSO control 5
Procedure: as §4

[20] = Staphylococcus aureus, ATCC25923

Row | Structure (SMILES) | IZD (mm) [1] | IZD (mm) [2] | IZD (mm) [3] | IZD (mm) [4] | IZD (mm) [5] | MIC [6] | MIC [7] | MIC [8] | MIC [9] | MIC (mg/mL) [10] | MIC [10, 20] | MMC [11] | MMC [12] | MMC [13] | MICMA [14] | MICMA [15] | MICMA [16] | MICMA [17] | MICMA [18] | MMC [19] | also measured
1 | COc1ccc(O)c(/C=N/NC(=O)Cn2c(C)nc3ccccc3c2=O)c1 [Compound 1e, N′-[(E)-(2-hydroxy-5-methoxyphenyl)methylidene]-2-(2-methyl-4-oxoquinazolin-3(4H)-yl)acetohydrazide] | 0.00 ± 0.00 mm | 0.00 ± 0.00 mm | 0.00 ± 0.00 mm | 0.00 ± 0.00 mm | 0.00 ± 0.00 mm | 1250 µg/mL (≈ 3.41 mM) | 5000 µg/mL (≈ 13.6 mM) | 5000 µg/mL (≈ 13.6 mM) | 5000 µg/mL (≈ 13.6 mM) | specifically active | 1250 µg/mL (≈ 3.41 mM) | >5 mg/mL | 5 mg/mL | 5 mg/mL | 2.5 mg/mL | 5 mg/mL | 5 mg/mL | 1.25 mg/mL | 2.5 mg/mL |  | 
2 | Cc1nc2ccccc2c(=O)n1CC(=O)N/N=C/c1cc(Br)ccc1O [Compound 1a, N′-[(E)-(5-bromo-2-hydroxyphenyl)methylidene]-2-(2-methyl-4-oxoquinazolin-3(4H)-yl)acetohydrazide] | 0.00 ± 0.00 mm | 0.00 ± 0.00 mm | 0.00 ± 0.00 mm | 0.00 ± 0.00 mm | 0.00 ± 0.00 mm | 625 µg/mL (≈ 1.51 mM) | 1250 µg/mL (≈ 3.01 mM) | 1250 µg/mL (≈ 3.01 mM) | 1250 µg/mL (≈ 3.01 mM) | specifically active | 1250 µg/mL (≈ 3.01 mM) |  | 2.5 mg/mL | >5 mg/mL | 0.625 mg/mL | 1.25 mg/mL | 1.25 mg/mL | 0.625 mg/mL | 2.5 mg/mL | 5 mg/mL | MIC (mg/mL) [8]: specifically active
3 | COc1cccc(/C=N/NC(=O)Cn2c(C)nc3ccccc3c2=O)c1O [Compound 1c, N′-[(E)-(2-hydroxy-3-methoxyphenyl)methylidene]-2-(2-methyl-4-oxoquinazolin-3(4H)-yl)acetohydrazide] | 6.67 ± 0.58 mm | 0.00 ± 0.00 mm | 7.67 ± 0.58 mm | 0.00 ± 0.00 mm | 7.67 ± 0.58 mm | 2500 µg/mL (≈ 6.82 mM) | 1250 µg/mL (≈ 3.41 mM) | 2500 µg/mL (≈ 6.82 mM) | 1250 µg/mL (≈ 3.41 mM) |  | 2500 µg/mL (≈ 6.82 mM) | >5 mg/mL | 2.5 mg/mL | 5 mg/mL | 0.625 mg/mL | 2.5 mg/mL | 2.5 mg/mL | 1.25 mg/mL | 2.5 mg/mL | 5 mg/mL | IC50 (antimicrobial activity) compared with solvent control ([7]; E. coli, versus DMSO, p < 0.05): significantly lower IC50 values than the solvent control
4 | COc1ccc(/C=N/NC(=O)Cn2c(C)nc3ccccc3c2=O)c(O)c1 [Compound 1d, N′-[(E)-(2-hydroxy-4-methoxyphenyl)methylidene]-2-(2-methyl-4-oxoquinazolin-3(4H)-yl)acetohydrazide] | 0.00 ± 0.00 mm | 0.00 ± 0.00 mm | 0.00 ± 0.00 mm | 0.00 ± 0.00 mm | 0.00 ± 0.00 mm | 5000 µg/mL (≈ 13.6 mM) | 1250 µg/mL (≈ 3.41 mM) | 5000 µg/mL (≈ 13.6 mM) | 1250 µg/mL (≈ 3.41 mM) |  | 2500 µg/mL (≈ 6.82 mM) | >5 mg/mL |  | >5 mg/mL | 1.25 mg/mL | 2.5 mg/mL | 5 mg/mL | 1.25 mg/mL | 2.5 mg/mL | >5 mg/mL | 
5 | Cc1nc2ccccc2c(=O)n1CC(=O)NN [Compound 2, 2-(2-methyl-4-oxoquinazolin-3(4H)-yl)acetohydrazide] | 6.33 ± 1.53 mm | 0.00 ± 0.00 mm | 0.00 ± 0.00 mm | 0.00 ± 0.00 mm | 0.00 ± 0.00 mm | 1250 µg/mL (≈ 5.38 mM) | 1250 µg/mL (≈ 5.38 mM) | 2500 µg/mL (≈ 10.8 mM) | 1250 µg/mL (≈ 5.38 mM) |  | 2500 µg/mL (≈ 10.8 mM) | >5 mg/mL | 5 mg/mL | >5 mg/mL |  | 1.25 mg/mL | >5 mg/mL |  | 2.5 mg/mL | 5 mg/mL | 
6 | COc1cc(/C=N/NC(=O)Cn2c(C)nc3ccccc3c2=O)cc([N+](=O)[O-])c1O [Compound 1f, N′-[(E)-(4-hydroxy-3-methoxy-5-nitrophenyl)methylidene]-2-(2-methyl-4-oxoquinazolin-3(4H)-yl)acetohydrazide] | 0.00 ± 0.00 mm | 0.00 ± 0.00 mm | 0.00 ± 0.00 mm | 0.00 ± 0.00 mm | 0.00 ± 0.00 mm | 1250 µg/mL (≈ 3.04 mM) | 1250 µg/mL (≈ 3.04 mM) | 1250 µg/mL (≈ 3.04 mM) | 1250 µg/mL (≈ 3.04 mM) |  | 2500 µg/mL (≈ 6.08 mM) | >5 mg/mL | 2.5 mg/mL | 5 mg/mL | 1.25 mg/mL | 2.5 mg/mL | 2.5 mg/mL | 1.25 mg/mL | 2.5 mg/mL | 5 mg/mL | MIC (mg/mL) [8]: specifically active
7 | Cc1nc2ccccc2c(=O)n1CC(=O)N/N=C/c1cc(Br)cc(Br)c1O [Compound 1b, N′-[(E)-(3,5-bromo-2-hydroxyphenyl)methylidene]-2-(2-methyl-4-oxoquinazolin-3(4H)-yl)acetohydrazide] | 0.00 ± 0.00 mm | 0.00 ± 0.00 mm | 0.00 ± 0.00 mm | 0.00 ± 0.00 mm | 12.33 ± 0.58 mm | 625 µg/mL (≈ 1.26 mM) | 1250 µg/mL (≈ 2.53 mM) | > 5000 µg/mL | 5000 µg/mL (≈ 10.1 mM) | specifically active | 312 µg/mL (≈ 0.632 mM) | >5 mg/mL | 5 mg/mL | >5 mg/mL | 5 mg/mL | 2.5 mg/mL | 5 mg/mL | 1.25 mg/mL | 1.25 mg/mL | 5 mg/mL | IC50 ([10]; Staphylococcus aureus, ATCC25923, S. aureus, four-parameter fit of microbial viability): 85.7 µg/mL (≈ 0.173 mM)
